Assay [1] addresses T1, HCV polymerase (NS5B) type 1a (Hepatitis C virus genotype 1a, UniProt P26664).
T1 construct: made in house; host or cells: Escherichia coli (by the 'similar method' of the 1b enzyme)
The assay is described as follows: Assay of enzyme (HCV polymerase) inhibitory activity, type 1a enzyme. To be noted: HCV polymerase inhibitory activity (IC50), 1a, type 1a enzyme 1.5 μg/ml, 25° C., 60 min. Type of assay: biochemical, HCV type 1a (cloned from the blood of patients). The procedure, abridged: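 His-tagged NS5B, C-terminal 47 residues deleted, type 1a at 1.5 μg/ml, with 5 μg/ml HCV 3′UTR substrate RNA, 50 μM ATP/GTP/CTP, 2 μM UTP plus [3H]UTP, pH 7.5 Tris, 5 mM MgCl2; 60 min at 25° C. TCA-precipitated RNA counted by scintillation; IC50 from radioactivity with vs. without compound.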

The target in assay [2] is T2, HCV polymerase (NS5B) type 1b (Hepatitis C virus genotype 1b, UniProt P26663).
T2 construct: a region encoding NS5B (J Virol 1991 March, 65(3), 1105-13, 544 amino acids after deletion of 47 amino acids on the C-terminal); 6xHis (C); made in house; host or cells: Escherichia coli
The assay is described as follows: Assay of enzyme (HCV polymerase) inhibitory activity, type 1b enzyme. Type of assay: biochemical, HCV BK strain (type 1b). The settings on record: HCV polymerase inhibitory activity (IC50), 1b, type 1b enzyme 0.5 μg/ml, 25° C., 60 min. The gist of the method: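 His-tagged, C-terminally truncated NS5B (BK strain, 1b; 0.5 μg/ml) incubated with compound 60 min at 25 °C on 3′UTR-derived substrate RNA (5 μg/ml), 50 μM ATP/GTP/CTP, 2 μM UTP plus [3H]UTP, pH 7.5. Acid-precipitated RNA counted; IC50 from radioactivity with and without compound.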

Where a name gives a salt, the structure may show the parent alone.

Regarding `CC(C)c1ccc(CNC(=O)[C@H]2CN(C(=O)c3ccncc3)CCN2S(=O)(=O)c2ccc(C(F)(F)F)cc2)cc1` [Example 201, (R)-4-(pyridine-4-carbonyl)-1-(4-trifluoromethyl-benzenesulfonyl)-piperazine-2-carboxylic acid 4-isopropyl-benzylamide], the IC50 in assay [1] and in assay [2] was over 1000 nM throughout.

Regarding `CCCN(C)c1ccc(CNC(=O)C2CN(C(C)=O)CCN2S(=O)(=O)c2ccc(C(C)C)cc2)cc1` (stereo not drawn) [Example 202, 4-acetyl-1-(4-isopropyl-benzenesulfonyl)-piperazine-2-carboxylic acid 4-(methyl-propyl-amino)-benzylamide], the IC50 in assay [1] was over 1000 nM; in assay [2], 100 to 1000 nM.

With `CC(=O)N1CCN(S(=O)(=O)c2ccc3c(c2)CCCC3)[C@@H](C(=O)NCc2ccc(C(C)C)cc2)C1` [Example 203, (R)-4-acetyl-1-(5,6,7,8-tetrahydro-naphthalene-2-sulfonyl)-piperazine-2-carboxylic acid 4-isopropyl-benzylamide], the IC50 is 100 to 1000 nM in assay [1] and under 100 nM in assay [2].

For the compound `CC(=O)N1CCN(S(=O)(=O)c2ccc3c(c2)CCC3)[C@@H](C(=O)NCc2ccc(C(C)C)cc2)C1` [Example 204, (R)-4-acetyl-1-(indane-5-sulfonyl)-piperazine-2-carboxylic acid 4-isopropyl-benzylamide], the IC50 in assay [1] and in assay [2] was 100 to 1000 nM in each case.

Regarding `CCCc1ccc(S(=O)(=O)N2CCN(C(C)=O)C[C@@H]2C(=O)NCc2ccc(C(C)C)cc2)cc1` [Example 205, (R)-4-acetyl-1-(4-propyl-benzenesulfonyl)-piperazine-2-carboxylic acid 4-isopropyl-benzylamide], the IC50 in assay [1] and in assay [2] was under 100 nM in each case.

Consider `CC(=O)N1CCN(S(=O)(=O)c2ccc(-c3ccccc3)cc2)[C@@H](C(=O)NCc2ccc(C(C)C)cc2)C1` [Example 206, (R)-4-acetyl-1-(biphenyl-4-sulfonyl)-piperazine-2-carboxylic acid 4-isopropyl-benzylamide], for which the half-maximal inhibitory concentration (IC50) in assay [1] and in assay [2] was 100 to 1000 nM throughout.

Consider `CC(=O)N1CCN(S(=O)(=O)c2ccc(OC(F)(F)F)cc2)[C@@H](C(=O)NCc2ccc(C(C)C)cc2)C1` [Example 207, (R)-4-acetyl-1-(4-trifluoromethoxy-benzenesulfonyl)-piperazine-2-carboxylic acid 4-isopropyl-benzylamide], for which the IC50 in assay [1] and in assay [2] was under 100 nM each time.

Consider `CC(=O)N1CCN(S(=O)(=O)c2ccc(C(C)(C)C)cc2)[C@@H](C(=O)NCc2ccc(C(C)C)cc2)C1` [Example 208, (R)-4-acetyl-1-(4-tert-butyl-benzenesulfonyl)-piperazine-2-carboxylic acid 4-isopropyl-benzylamide], for which the IC50 in assay [1] and in assay [2] was under 100 nM in each case.

For the compound `CN(C)c1ccc(CNC(=O)[C@H]2CNCCN2S(=O)(=O)c2ccc(C(F)(F)F)cc2)cc1` [Example 209, (R)-1-(4-trifluoromethyl-benzenesulfonyl)-piperazine-2-carboxylic acid 4-dimethylamino-benzylamide dihydrochloride], the IC50 in assay [1] and in assay [2] was over 1000 nM throughout.

Take `CC(C)c1ccc(CNC(=O)[C@H]2CN(C(=O)Nc3cccnc3)CCN2S(=O)(=O)c2ccc(C(F)(F)F)cc2)cc1` [Example 211, (R)-4-(4-trifluoromethyl-benzenesulfonyl)-piperazine-1,3-dicarboxylic acid 3-(4-isopropyl-benzylamide) 1-pyridin-3-ylamide]: the half-maximal inhibitory concentration (IC50) in assay [1] and in assay [2] was 100 to 1000 nM each time.

As to `COC(=O)CCCCC(=O)N1CCN(S(=O)(=O)c2ccc(C(F)(F)F)cc2)[C@@H](C(=O)NCc2ccc(C(C)C)cc2)C1` [Example 212, 6-[(R)-3-(4-isopropyl-benzylcarbamoyl)-4-(4-trifluoromethyl-benzenesulfonyl)-piperazin-1-yl]-6-oxo-hexanoic acid methyl ester], the IC50 is 100 to 1000 nM in assay [1] and under 100 nM in assay [2].

Turning to `CC(C)c1ccc(CNC(=O)[C@H]2CN(C(=O)CCCCC(=O)O)CCN2S(=O)(=O)c2ccc(C(F)(F)F)cc2)cc1` [Example 213, 6-[(R)-3-(4-isopropyl-benzylcarbamoyl)-4-(4-trifluoromethyl-benzenesulfonyl)-piperazin-1-yl]-6-oxo-hexanoic acid], the concentration for half-maximal inhibition (IC50) in assay [1] and in assay [2] was 100 to 1000 nM in each case.

Consider `COc1ccc(S(=O)(=O)N2CCN(C(C)=O)C[C@@H]2C(=O)NCc2ccc(C(C)C)cc2)cc1` [Example 214, (R)-4-acetyl-1-(4-methoxy-benzenesulfonyl)-piperazine-2-carboxylic acid 4-isopropyl-benzylamide], for which the IC50 in assay [1] and in assay [2] was 100 to 1000 nM throughout.

Consider `COc1ccc(S(=O)(=O)N2CCN(C(C)=O)C[C@@H]2C(=O)NCc2ccc(C(C)C)cc2)cc1C(C)C` [Example 215, (R)-4-acetyl-1-(3-isopropyl-4-methoxy-benzenesulfonyl)-piperazine-2-carboxylic acid 4-isopropyl-benzylamide], for which the IC50 was 100 to 1000 nM in assay [1] and under 100 nM in assay [2].

Turning to `COc1ccc(S(=O)(=O)N2CCN(C(C)=O)C[C@@H]2C(=O)NCc2ccc(C(C)C)cc2)cc1Cl` [Example 216, (R)-4-acetyl-1-(3-chloro-4-methoxy-benzenesulfonyl)-piperazine-2-carboxylic acid 4-isopropyl-benzylamide], the IC50 in assay [1] and in assay [2] was 100 to 1000 nM throughout.

As for `COC(=O)Cc1cc(S(=O)(=O)N2CCN(C(C)=O)C[C@@H]2C(=O)NCc2ccc(C(C)C)cc2)ccc1OC` [Example 217, {5-[(R)-4-acetyl-2-(4-isopropyl-benzylcarbamoyl)-piperazine-1-sulfonyl]-2-methoxy-phenyl}-acetic acid methyl ester], the IC50 in assay [1] and in assay [2] was over 1000 nM throughout.

For `COC(=O)CCc1cc(S(=O)(=O)N2CCN(C(C)=O)C[C@@H]2C(=O)NCc2ccc(C(C)C)cc2)ccc1OC` [Example 218, 3-{5-[(R)-4-acetyl-2-(4-isopropyl-benzylcarbamoyl)-piperazine-1-sulfonyl]-2-methoxy-phenyl}-propionic acid methyl ester], the IC50 in assay [1] and in assay [2] was 100 to 1000 nM each time.

Turning to `CC(C)c1ccc(CNC(=O)[C@H]2CN(C(=O)Cn3ccnc3)CCN2S(=O)(=O)c2ccc(C(F)(F)F)cc2)cc1` [Example 219, (R)-4-(2-imidazol-1-yl-acetyl)-1-(4-trifluoromethyl-benzenesulfonyl)-piperazine-2-carboxylic acid 4-isopropyl-benzylamide], the IC50 in assay [1] and in assay [2] was under 100 nM each time.

For `CC(C)c1ccc(CNC(=O)[C@H]2CN(C(=O)Cn3ccnn3)CCN2S(=O)(=O)c2ccc(C(F)(F)F)cc2)cc1` [Example 220, (R)-4-(2-[1,2,3]triazol-1-yl-acetyl)-1-(4-trifluoromethyl-benzenesulfonyl)-piperazine-2-carboxylic acid 4-isopropyl-benzylamide], the IC50 in assay [1] and in assay [2] was under 100 nM in each case.

With `COc1ccc(S(=O)(=O)N2CCN(C(C)=O)C[C@@H]2C(=O)NCc2ccc(C(C)C)cc2)cc1CC(=O)O` [Example 221, {5-[(R)-4-acetyl-2-(4-isopropyl-benzylcarbamoyl)-piperazine-1-sulfonyl]-2-methoxy-phenyl}-acetic acid], the IC50 in assay [1] and in assay [2] was over 1000 nM in each case.

Take `COc1ccc(S(=O)(=O)N2CCN(C(C)=O)C[C@@H]2C(=O)NCc2ccc(C(C)C)cc2)cc1CCC(=O)O` [Example 222, 3-{5-[(R)-4-acetyl-2-(4-isopropyl-benzylcarbamoyl)-piperazine-1-sulfonyl]-2-methoxy-phenyl}-propionic acid]: the IC50 in assay [1] and in assay [2] was 100 to 1000 nM throughout.

As to `COC(=O)C(C)(C)c1ccc(CNC(=O)[C@H]2CN(C(C)=O)CCN2S(=O)(=O)c2ccc(C(C)C)cc2)cc1` [Example 223, 2-[4-({[(R)-4-acetyl-1-(4-isopropyl-benzenesulfonyl)-piperazine-2-carbonyl]-amino}-methyl)-phenyl]-2-methyl-propionic acid methyl ester], the IC50 in assay [1] and in assay [2] was 100 to 1000 nM in each case.

Turning to `CC(=O)N1CCN(S(=O)(=O)c2ccc(C(C)C)cc2)[C@@H](C(=O)NCc2ccc(CCO)cc2)C1` [Example 224, (R)-4-acetyl-1-(4-isopropyl-benzenesulfonyl)-piperazine-2-carboxylic acid 4-(2-hydroxy-ethyl)-benzylamide], the IC50 in assay [1] and in assay [2] was over 1000 nM each time.

`CC(C)c1ccc(CNC(=O)[C@H]2CN(C(=O)CN)CCN2S(=O)(=O)c2ccc(C(F)(F)F)cc2)cc1` [Example 225, (R)-4-(2-amino-acetyl)-1-(4-trifluoromethyl-benzenesulfonyl)-piperazine-2-carboxylic acid 4-isopropyl-benzylamide hydrochloride]: the 50% inhibitory concentration (IC50) in assay [1] and in assay [2] was 100 to 1000 nM in each case.

The record behind these values is patent US8017612B2, “Piperazine compound and use thereof as a HCV polymerase inhibitor” (priority 2006, dated 2011).
